From US20260184700A1, “PDK1 REGULATORY COMPOUND AND COMPOSITION CONTAINING THE SAME” (PROVIBIO CO., LTD., priority 2024, published 2026)

Columns and labels:
[1] = tested on: Human Melanoma cancer cell, Malme-3M; experiment: Relative cell viability, CCK-8, Malme-3M; format: cell-based; details: 48 hours
Experimental: (§1) Human-derived breast cancer cell line MCF-7, human-derived lung cancer cell line A549, human-derived colorectal cancer cell line HCT-116, human pancreatic cancer cell line AsPC-1, glioblastoma cell line A172, and melanoma cell line Malme-3M were obtained from the Korean Cell Bank. gastric cancer cell line SNU-719, and bladder cancer cell line T24 were cultured in RPMI-1640 medium containing 10% FBS.
(§2) Following stabilization, the cells were harvested using Trypsin-EDTA treatment, centrifuged at 1,200 rpm for 3 minutes, the supernatant was removed, and the cells were resuspended in the same medium. They were then seeded into a 96-well plate (Costar 96-well cell culture plate, Corning) at 100 μL per well, and the conditions were adjusted as indicated in Table 5.
The cells were cultured in a 5% CO2 incubator at 37° C. for 24 hours, and after stabilization of the cells, each plate was washed with 200 μL of PBS per well and treated with 50 μL of culture medium per well.
(§3) After that, 10 μL of CCK-8 was added to each well, and the plate was incubated again at 37° C. in a 5% CO2 incubator for 2 hours.
(§4) In other words, when the survival rate of untreated cells (DMSO) is set at 100%, the relative cell survival rate in each group treated with the drug at different concentrations is indicated.

[2] = tested on: Human Bladder cancer cell, T24; experiment: Relative cell viability, CCK-8, T24; format: cell-based; details: 48 hours
Experimental: as §1, §2
The cells were cultured in a 5% CO2 incubator at 37° C. for 24 hours, and after stabilization of the cells, each plate was washed with 200 μL of PBS per well and treated with 50 μL of culture medium per well. […]
as §3, §4

[3] = tested on: skin-grafted C57BL/6 mice; experiment: Skin graft animal model (BALB/c donor, C57BL/6 recipient); format: in vivo, mouse; details: GO88 0.15 mg/kg twice daily
Experimental: To evaluate the immune-suppressive effects of the compounds according to the present invention, a skin graft animal model was established, and the efficacy of the compounds was analyzed in the model.
First, female BALB/c mice aged 7 weeks and weighing approximately 20 g were used as donor animals, and female C57BL/6 mice of the same age and weight were used as recipient animals. All experimental animals were supplied by HanabioTech Co., Ltd.
Prior to the experiment, the animals were acclimatized in SPF-certified facilities for one week and then used in the experiment. The housing conditions were maintained at a temperature of 22±2° C., relative humidity of 55±10%, and a 12-hour light-dark cycle.
To establish the skin graft model, a anesthetic solution consisting of ketamine, […], and PBS in a volume ratio of 1:1:3 was administered intraperitoneally to C57BL/6 mice to induce anesthesia.
The hair on the dorsal side of the anesthetized mice was removed and disinfected, followed by excision of the full-thickness skin using an 8 mm punch. Subsequently, skin of the same size was harvested from donor mice (BALB/c) and transplanted. […]
Subsequently, the proportions of CD3- and B220-positive cells were analyzed using a flow cytometer.

Row | SMILES | Relative cell viability (%) ([1]; 1 μM) | Relative cell viability (%) ([1]; 10 μM) | Relative cell viability (%) ([1]; 30 μM) | Relative cell viability (%) ([1]; 50 μM) | Relative cell viability (%) ([2]; T24, 1 μM) | Relative cell viability (%) ([2]; T24, 10 μM) | Relative cell viability (%) ([2]; T24, 30 μM) | Relative cell viability (%) ([2]; T24, 50 μM) | animals with graft pinkening and good blood flow ([3]; day 10 post-transplantation) | animals with graft pinkening and good blood flow ([3]; day 15 post-transplantation)
1 | CC1(C)CN(CCCCCCCCCCCCC(=O)Nc2nc(N)c3[nH]cnc3n2)CCO1 [Compound 11, 12-[4-(2,2-dimethylmorpholin-4-yl)]dodecyl-N-(6-aminopurine-2-yl)carboxamide] | 44.06 | 37.40 | 36.80 | 38.87 | 28.15 | 31.17 | 30.42 | 29.34 | – | –
2 | Nc1ncccc1C(=O)NCCCCCCCCCCCCN1CCNCC1 [Compound 14, 2-Amino-N-(12-(piperazin-1-yl)dodecyl)nicotinamide] | – | – | – | – | – | – | – | – | three out of five animals | one out of five animals
